# According to the supplement of paper PMC8882468:
# ± gives the standard deviation of the averaged measurements.
# Tests used:
# Assay in all cases: CTG-3D luminescence at 96 h relative to day-0 seeding control (ratio to day 0); higher = more growth / less cytotoxicity
# [1] = system: HCI-017.E2 (organoid from an ER-positive breast cancer xenograft)
# Procedure: (§1)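 PDxO 3D drug screen (set 2), 8-point dose, 96 h; CTG-3D luminescence normalised to day-0 seeding control (mean of 4 wells each).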
# [2] = system: HCI-012 (organoid from a breast cancer xenograft)
# Procedure: as §1
# [3] = system: HCI-002 (organoid from a triple-negative breast cancer xenograft)
# Procedure: as §1
compound,measurement,setting,value
CC/C(=C(\c1ccc(O)cc1)c1ccc(OCCN(C)C)cc1)c1ccccc1 [4-hydroxytamoxifen],CTG-3D luminescence at 96 h,[1]; 12.5 pM,2.22 ± 0.55
same,CTG-3D luminescence at 96 h,"[1]; 12.5 pM, days in culture: 85",2.08
same,CTG-3D luminescence at 96 h,[1]; 0.00025 µM,2.39 ± 0.3
same,CTG-3D luminescence at 96 h,"[1]; 0.00025 µM, days in culture: 85",1.78
same,CTG-3D luminescence at 96 h,[1]; 0.005 µM,2.07 ± 0.11
same,CTG-3D luminescence at 96 h,"[1]; 0.005 µM, days in culture: 85",1.81
same,CTG-3D luminescence at 96 h,[1]; 0.1 µM,2.2 ± 0.46
same,CTG-3D luminescence at 96 h,"[1]; 0.1 µM, days in culture: 85",2.09
same,CTG-3D luminescence at 96 h,[1]; 1 µM,1.83 ± 0.2
same,CTG-3D luminescence at 96 h,"[1]; 1 µM, days in culture: 85",1.49
same,CTG-3D luminescence at 96 h,[1]; 10 µM,1.95 ± 0.45
same,CTG-3D luminescence at 96 h,"[1]; 10 µM, days in culture: 85",1.08
same,CTG-3D luminescence at 96 h,[1]; 100 µM,0.0156 ± 0.00072
same,CTG-3D luminescence at 96 h,"[1]; 100 µM, days in culture: 85",0.0372
same,CTG-3D luminescence at 96 h,[1]; 625 fM,2.35 ± 0.15
same,CTG-3D luminescence at 96 h,"[1]; 625 fM, days in culture: 85",2.06
same,CTG-3D luminescence at 96 h,"[2]; 12.5 pM, days in culture: 214",3.56
same,CTG-3D luminescence at 96 h,"[2]; 12.5 pM, days in culture: 243",2.35
same,CTG-3D luminescence at 96 h,"[2]; 12.5 pM, days in culture: 256",1.59
same,CTG-3D luminescence at 96 h,"[2]; 12.5 pM, days in culture: 284",2.11
same,CTG-3D luminescence at 96 h,"[2]; 0.00025 µM, days in culture: 214",3.14
same,CTG-3D luminescence at 96 h,"[2]; 0.00025 µM, days in culture: 243",2.75
same,CTG-3D luminescence at 96 h,"[2]; 0.00025 µM, days in culture: 256",1.79
same,CTG-3D luminescence at 96 h,"[2]; 0.00025 µM, days in culture: 284",2.32
same,CTG-3D luminescence at 96 h,"[2]; 0.005 µM, days in culture: 214",1.65
same,CTG-3D luminescence at 96 h,"[2]; 0.005 µM, days in culture: 243",1.8
same,CTG-3D luminescence at 96 h,"[2]; 0.005 µM, days in culture: 256",2.4
same,CTG-3D luminescence at 96 h,"[2]; 0.005 µM, days in culture: 284",1.6
same,CTG-3D luminescence at 96 h,"[2]; 0.1 µM, days in culture: 214",2.13
same,CTG-3D luminescence at 96 h,"[2]; 0.1 µM, days in culture: 243",2.23
same,CTG-3D luminescence at 96 h,"[2]; 0.1 µM, days in culture: 256",3.03
same,CTG-3D luminescence at 96 h,"[2]; 0.1 µM, days in culture: 284",2.02
same,CTG-3D luminescence at 96 h,"[2]; 1 µM, days in culture: 214",2.18
same,CTG-3D luminescence at 96 h,"[2]; 1 µM, days in culture: 243",1.49
same,CTG-3D luminescence at 96 h,"[2]; 1 µM, days in culture: 256",2.03
same,CTG-3D luminescence at 96 h,"[2]; 1 µM, days in culture: 284",1.71
same,CTG-3D luminescence at 96 h,"[2]; 10 µM, days in culture: 214",0.301
same,CTG-3D luminescence at 96 h,"[2]; 10 µM, days in culture: 243",1.87
same,CTG-3D luminescence at 96 h,"[2]; 10 µM, days in culture: 256",1.01
same,CTG-3D luminescence at 96 h,"[2]; 10 µM, days in culture: 284",1.47
same,CTG-3D luminescence at 96 h,"[2]; 100 µM, days in culture: 214",0.00686
same,CTG-3D luminescence at 96 h,"[2]; 100 µM, days in culture: 243",0.00753
same,CTG-3D luminescence at 96 h,"[2]; 100 µM, days in culture: 256",-0.000283
same,CTG-3D luminescence at 96 h,"[2]; 100 µM, days in culture: 284",0.00771
same,CTG-3D luminescence at 96 h,"[2]; 625 fM, days in culture: 214",1.93
same,CTG-3D luminescence at 96 h,"[2]; 625 fM, days in culture: 243",2.29
same,CTG-3D luminescence at 96 h,"[2]; 625 fM, days in culture: 256",2.33
same,CTG-3D luminescence at 96 h,"[2]; 625 fM, days in culture: 284",3.35
same,CTG-3D luminescence at 96 h,"[3]; 12.5 pM, days in culture: 127",2.42
same,CTG-3D luminescence at 96 h,"[3]; 12.5 pM, days in culture: 155",4.99
same,CTG-3D luminescence at 96 h,"[3]; 12.5 pM, days in culture: 168",3.07
same,CTG-3D luminescence at 96 h,"[3]; 0.00025 µM, days in culture: 127",2.73
same,CTG-3D luminescence at 96 h,"[3]; 0.00025 µM, days in culture: 155",5.16
same,CTG-3D luminescence at 96 h,"[3]; 0.00025 µM, days in culture: 168",2.97
same,CTG-3D luminescence at 96 h,"[3]; 0.005 µM, days in culture: 127",2.8
same,CTG-3D luminescence at 96 h,"[3]; 0.005 µM, days in culture: 155",5.23
same,CTG-3D luminescence at 96 h,"[3]; 0.005 µM, days in culture: 168",4.33
same,CTG-3D luminescence at 96 h,"[3]; 0.1 µM, days in culture: 127",2.99
same,CTG-3D luminescence at 96 h,"[3]; 0.1 µM, days in culture: 155",5.86
same,CTG-3D luminescence at 96 h,"[3]; 0.1 µM, days in culture: 168",2.96
same,CTG-3D luminescence at 96 h,"[3]; 1 µM, days in culture: 127",2.6
same,CTG-3D luminescence at 96 h,"[3]; 1 µM, days in culture: 155",4.71
same,CTG-3D luminescence at 96 h,"[3]; 1 µM, days in culture: 168",3.6
same,CTG-3D luminescence at 96 h,"[3]; 10 µM, days in culture: 127",2.18
